Source: the supplement of paper PMC10307832

Key:
Assay in all cases: relative viability (nuclei count vs DMSO), 5 days (fraction); higher = more cells survive
AGI-6780 + AZD7762 = compound: O=C(Nc1cccc(C(F)(F)F)c1)Nc1cc(S(=O)(=O)NC2CC2)ccc1-c1ccsc1 [AGI-6780] + NC(=O)Nc1cc(-c2cccc(F)c2)sc1C(=O)N[C@H]1CCCNC1 [AZD7762] (partner 0.2 µM)
Outline: (§1)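 Lung cancer cell lines were seeded in 1536-well plates and dosed by pin tool the next day, with either a single drug or a fixed anchor-drug dose combined with five library-drug doses (not always all listed) spaced in √10 steps. Five days later, one step fixed the cells and stained their nuclei (final 0.05% Triton X-100, 1% formaldehyde, 1 ug/ml Hoechst), and nuclei were counted on 4× images. Relative viability is the nuclei count in treated wells divided by the count in vehicle wells, and each value is the median of duplicate plates.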

AGI-6780 + Vorinostat = compound: O=C(Nc1cccc(C(F)(F)F)c1)Nc1cc(S(=O)(=O)NC2CC2)ccc1-c1ccsc1 [AGI-6780] + O=C(CCCCCCC(=O)Nc1ccccc1)NO [Vorinostat] (partner 1 µM)
Outline: as §1

AGI-6780 + Foretinib = compound: O=C(Nc1cccc(C(F)(F)F)c1)Nc1cc(S(=O)(=O)NC2CC2)ccc1-c1ccsc1 [AGI-6780] + COc1cc2c(Oc3ccc(NC(=O)C4(C(=O)Nc5ccc(F)cc5)CC4)cc3F)ccnc2cc1OCCCN1CCOCC1 [Foretinib] (partner 0.25 µM)
Outline: as §1

AGI-6780 + Pictilisib = compound: O=C(Nc1cccc(C(F)(F)F)c1)Nc1cc(S(=O)(=O)NC2CC2)ccc1-c1ccsc1 [AGI-6780] + CS(=O)(=O)N1CCN(Cc2cc3nc(-c4cccc5[nH]ncc45)nc(N4CCOCC4)c3s2)CC1 [Pictilisib] (partner 1 µM)
Outline: as §1

Cell Line	relative viability (AGI-6780 + AZD7762; first compound 0.08 µM)	relative viability (AGI-6780 + AZD7762; first compound 0.253 µM)	relative viability (AGI-6780 + AZD7762; first compound 0.8 µM)	relative viability (AGI-6780 + AZD7762; first compound 2.53 µM)	relative viability (AGI-6780 + AZD7762; first compound 8 µM)	relative viability (AGI-6780 + Vorinostat; first compound 0.08 µM)	relative viability (AGI-6780 + Vorinostat; first compound 0.253 µM)	relative viability (AGI-6780 + Vorinostat; first compound 0.8 µM)	relative viability (AGI-6780 + Vorinostat; first compound 2.53 µM)	relative viability (AGI-6780 + Vorinostat; first compound 8 µM)	relative viability (AGI-6780 + Foretinib; first compound 0.08 µM)	relative viability (AGI-6780 + Foretinib; first compound 0.253 µM)	relative viability (AGI-6780 + Foretinib; first compound 0.8 µM)	relative viability (AGI-6780 + Foretinib; first compound 2.53 µM)	relative viability (AGI-6780 + Foretinib; first compound 8 µM)	relative viability (AGI-6780 + Pictilisib; first compound 0.08 µM)	relative viability (AGI-6780 + Pictilisib; first compound 0.253 µM)	relative viability (AGI-6780 + Pictilisib; first compound 0.8 µM)	relative viability (AGI-6780 + Pictilisib; first compound 2.53 µM)	relative viability (AGI-6780 + Pictilisib; first compound 8 µM)
NCI-H2126	1.03	1.08	0.989	0.97	1.08	0.855	0.884	0.79	0.585	0.758	1.32	1.09	1.08	1.08	1.18	0.484	0.573	0.496	0.44	0.493
LXF-289	1.16	1.17	1.11	1.37	0.991	0.858	0.788	0.736	0.843	0.778	1	1	1.04	0.954	0.934	0.827	0.803	0.766	0.741	0.827
NCI-H1437	1.11	1.11	1.28	1.16	1.17	0.818	0.856	0.827	0.751	0.636	1.2	1.27	1.21	1.31	1.15	0.438	0.545	0.432	0.283	0.43
NCI-H647	0.425	0.484	0.827	0.401	0.589	0.734	0.628	0.942	0.572	0.752	1.1	1.2	1.31	1.11	1.4	0.428	0.452	0.421	0.347	0.342
NCI-H838	0.988	0.903	0.919	0.932	0.909	0.801	0.687	0.738	0.647	0.672	1.13	1.02	0.987	0.895	1.02	0.473	0.479	0.469	0.447	0.48
NCI-H661	–	–	–	–	–	0.815	0.863	0.809	0.793	0.734	1.03	0.986	1.03	0.873	1.05	0.378	0.482	0.45	0.317	0.381
Calu-6	–	–	–	–	–	–	–	–	–	–	0.88	0.871	0.96	0.89	0.885	0.996	0.891	0.929	0.908	0.937
UMC-11	–	–	–	–	–	0.407	0.426	0.447	–	0.434	1.03	1.03	1.23	–	1.19	0.822	0.837	1.08	–	0.887
NCI-H1299	–	–	–	–	–	–	–	–	–	–	1.09	1.07	1.07	1.05	1.12	0.781	0.733	0.639	0.765	0.742
SK-MES-1	–	–	–	–	–	1.21	1.17	1	1.03	0.994	0.896	1.01	0.773	0.709	0.833	0.365	0.367	0.338	0.273	0.344
HCC-44	0.916	1.11	1.04	1.07	1.04	1.16	1.03	1.13	1.08	1.11	–	–	–	–	–	0.745	0.72	0.649	0.496	0.486
NCI-H2023	–	–	–	–	–	0.705	0.818	0.781	0.541	0.648	0.984	0.823	0.829	0.777	0.825	0.284	0.279	0.271	0.181	0.229
NCI-H1703	0.14	0.139	0.0936	0.112	0.133	–	–	–	–	–	–	0.327	0.333	0.36	0.393	0.336	0.197	0.259	0.223	0.248
COR-L23	–	–	–	–	–	0.348	0.425	0.429	0.554	0.453	1.03	0.948	0.883	1.06	0.837	0.772	0.755	0.702	0.66	0.827
SK-LU-1	–	–	–	–	–	0.816	0.798	0.534	0.732	0.786	0.873	0.859	–	0.737	0.831	0.496	0.57	0.437	0.435	0.752
NCI-H2009	–	–	–	–	–	0.754	0.712	0.693	0.707	0.628	1.23	1.23	1.19	1.24	1.14	0.731	0.884	0.911	0.737	0.867
NCI-H1650	–	–	–	–	–	0.583	0.592	0.646	0.489	0.549	1.07	1.23	1.06	1.24	1.13	0.566	0.555	0.678	0.568	0.586
SW 1573	–	–	–	–	–	0.792	0.75	0.999	–	0.972	0.881	1.01	0.93	0.836	0.903	0.506	0.518	0.514	0.374	0.543
NCI-H2228	–	–	–	–	–	0.641	0.597	0.592	0.502	0.537	1	0.767	0.598	0.709	0.853	0.378	0.532	0.358	0.133	0.386
IA-LM	–	–	–	–	–	–	0.857	1.06	1.04	0.778	1.28	1.13	1.21	1.13	1.15	0.452	0.38	0.39	0.301	0.476
